Data taken from patent US12048734B2, “Bioactive peptides and methods of use thereof” (OP-T LLC, priority 2020, dated 2024).

Experiments:
[1] = Character of infusion reactions in the animal studies; type: in vivo
From the text: There was clear difference between the infusion reactions seen in the rats and dogs, and IgE-mediated anaphylaxis or other antigen-dependent hypersensitivity. IgE/antigen-dependent degranulation of mast cells is associated with a sustained release of larger and more heterogeneously shaped granule structures, whereas peptide-activated mast cells rapidly secrete small and relatively spherical granule structures (Gaudenzio 2016). […] In addition, the infusion reactions were also elicited by a scrambled version of OPT101 (same amino acids but in a different sequence), showing the reaction was not OPT101-dependent.

[2] = 8-week GLP repeat-dose toxicity study, 30-minute IV infusion, rats; type: in vivo
Experimental: Due to these adverse effects in the rats and dogs after a bolus IV injection, the administration of OPT101 was changed to IV infusion over 30 minutes for the definitive GLP toxicity studies. Rats and dogs were treated once a week for 8-weeks, by 30-minute IV infusions. The PK of OPT101 was also determined following the first and last dose in each study. […] The no observable adverse effect level (NOAEL) for OPT101 was considered to be the […] level. […] Due to the incidence and severity of the infusion reactions, the clinical signs were considered adverse at 100 and 400 mg/kg, but because of the lower incidence and severity at 10 mg/kg, the effects at the 10 mg/kg were considered non-adverse.

[3] = Preliminary toxicity study, single IV bolus, rats; type: in vivo; settings: 50 or 100 mg/kg bolus IV injection
Experimental: (§1) In a preliminary toxicity study rats and dogs were given a single dose of OPT 101 as an IV bolus. […] When OPT101 was administered to beagle dogs at 50 or 100 mg/kg by bolus IV injection OPT101 was not tolerated due to adverse clinical signs, including prostration, slight salivation, decreased activities, purple or red skin colored in the abdomen ventral, lateral ears or conjunctiva(s), lips, or periorbital, soft stool, medium food-like, red/brown, or small and frothy vomitus, increased respiratory rate, and labored breathing. Clinical pathology effects included increases in leukocyte count, erythrocyte and platelet counts.

[4] = Single dose dog study focused on cardiovascular effects, 30-minute IV infusion; type: in vivo, dogs
Experimental: Since some of the clinical signs were consistent with a drop in blood pressure, a single dose dog study was done, giving doses of 0.3, 1 or 100 mg/kg by a 30-minute IV infusion, and focused on cardiovascular effects. […] The 100 mg/kg group had much more severe clinical observations compared to 1 mg/kg. These effects were associated with decreases in blood pressure and heart rate for the dogs treated with 100 mg/kg. The blood pressure and heart rate returned to normal by 1 hour after end of infusion.

[5] = 8-week GLP repeat-dose toxicity study, 30-minute IV infusion, dogs; type: in vivo
Experimental: Rats and dogs were treated once a week for 8-weeks, by 30-minute IV infusions. The PK of OPT101 was also determined following the first and last dose in each study.

[6] = Single bolus IV dose histamine / immune mediator study in rats
[7] = test system: bacterial mutation; assay: Standard reverse bacterial mutation assay (Ames assay)
From the text: OPT101 was negative in the standard reverse bacterial mutation assay (Ames assay).

[8] = test system: human platelets; assay: Human platelet aggregation in vitro by light transmission aggregometry; type: cell-based
From the text: It has been shown that using an anti-CD154 monoclonal therapeutic approach to interfere with the CD40-CD154 interaction there was efficacy in animal models, but in the clinical trial of one of the monoclonal antibodies there was binding to platelets resulting in emboli. Therefore, the clinical trials were halted (Kawai et al 2000, abstract). To determine if OPT101 has similar effects as the monoclonal antibody, an in vitro study was done with human platelets to determine if OPT101 would affect platelet aggregation, as measured by light transmission aggregometry. Platelet aggregation induced with adenosine diphosphate or collagen were not affected when treated with OPT101 at 0.1, 0.3, 3 or 30 μg/mL. […] Therefore, OPT101 had no impact on human platelet aggregation in vitro.

[9] = Preliminary toxicity study, single IV bolus, beagle dogs; type: in vivo
Experimental: as §1

[10] = NDA 022150; cited from earlier work
[11] = test system: Th40 cells; assay: Intracellular TGF in Th40 cells from ApoE−/− mice treated with KGYY6; settings: ApoE−/− mice with cardiovascular disease treated with KGYY6 vs not treated; ex-vivo flow cytometry
Experimental: Th40 cells were purified from ApoE−/−mice with cardiovascular disease as well as from ApoE−/−mice that were treated with KGYY6. Immediately ex-vivo, the cells were stained for CD3, CD4, and CD40 and intracellular TGF and analyzed by flow cytometry. Cells were gated on CD3 then CD4 and CD40 for Th40 cells then levels of TGF were assessed.

[12] = Glucose tolerance and insulin sensitivity after KGYY6; type: in vivo, ApoE −/−mice
[13] = test system: conventional CD4 T cells; assay: Intracellular IL-10 in conventional CD4 T cells ex-vivo at end of EAE experiment after KGYY6 treatment; design: species or system mice; settings: draining lymph nodes (dLN); after 33 days; vs untreated animals; p=0.0145
From the text: FIG. 10 provides two graphs which show how KGYY-6 treatment alters IL-10 production by conventional CD4 T cells.
Intracellular cytokine expression profiles were examined in conventional CD4 T cells immediately ex-vivo at the end of the EAE experiment, after 33 days.

[14] = test system: CD3+CD4+CD40+(Th40) splenic cells; assay: Overnight culture of Th40 splenic cells with KGYY6, inflammatory cytokines; type: cell-based, ApoE−/− mice; settings: cultured overnight with varying concentrations of KGYY6; vs untreated cells
Experimental: CD3+CD4+CD40+(Th40) splenic cells were purified from ApoE−/− with cardiovascular disease. The cells were cultured overnight in the absence/presence of varying concentrations of KGYY6 peptide.

[15] = 12.5 mg/kg bolus IV, 1-hour post-treatment
[16] = 50 and 100 mg/kg IV injection, vs pretest values

In the case of `CSCC[C@H](NC(=O)[C@@H](NC(=O)[C@H](Cc1ccc(O)cc1)NC(=O)[C@H](Cc1ccc(O)cc1)NC(=O)CNC(=O)[C@H](CCCCN)NC(=O)[C@H](CCCCN)NC(=O)[C@H](C)NC(=O)[C@H](Cc1c[nH]c2ccccc12)NC(=O)[C@H](CCC(N)=O)NC(=O)[C@H](CC(C)C)NC(=O)[C@@H](N)C(C)C)[C@@H](C)O)C(=O)N[C@@H](CCCCN)C(=O)N[C@@H](CO)C(=O)N[C@@H](CC(N)=O)C(=O)O` [OPT101, VLQWAKKGYYTMKSN], the complement activation [1] is reported as “no evidence of complement activation”, the “duration of clinical signs and release of histamine” value [1] is reported as “very transient” and the tolerability ([2]; 10, 100 or 200 mg/kg/dose once a week for 8 weeks, 30-minute IV infusion) is reported as “well tolerated and did not result in any adverse effects”. The NOAEL ([2]; rat, in vivo, rats, once weekly for 8 weeks, 30-minute IV infusion, read-out: no observable adverse effect level (NOAEL)) was 200 mg/kg, the thromboemboli ([2]; rats, 8-week toxicology study) was “no evidence of thromboemboli” and the “toxicity other than infusion reaction” value ([2]; rats, up to highest dose of 200 mg/kg, once weekly for 8 weeks, 200 mg/kg) was “no other adverse effects”. The mortality [3] was “mortality of two rats”, the tolerability ([3]; single dose) was “did not tolerate the treatment” and the “clinical observations or physiological changes” value ([4]; 0.3 mg/kg) was “no clinical observations or physiological changes”. For the same molecule, the “blood pressure and heart rate” value ([4]; 100 mg/kg) was “decreases”, the “time for blood pressure and heart rate to return to normal after end of infusion” value ([4]; 100 mg/kg) was ≤ 1 h and the “serum levels of histamine” value ([4]; 100 mg/kg, 5 and 30 minutes after start of infusion) was “significantly elevated”. For the same molecule, the “body weight, food consumption, body temperature, respiratory rate and coagulation” value ([4]; 0.3, 1 or 100 mg/kg, 30-minute IV infusion, single dose) was “no OPT101-related body weight, food consumption, body temperature, respiratory rate and coagulation changes”, the “histamine related clinical observations” value ([4]; 1 and 100 mg/kg, much more severe at 100 mg/kg) was “salivation, vomitus, incontinence, discolored skin, swelling and rash” and the “no observable effect level (NOEL)” value ([4]; single dose, 30-minute IV infusion) was 0.3 mg/kg. The “assessment of infusion reaction clinical signs” value ([5]; 10 mg/kg) was “non-adverse”, the “plasma drug levels versus dose” value ([5]; 8-week study, PK after first and last dose) was “increased with increasing dose” and the “infusion reactions, incidence” value ([5]; 10, 100, or 400 mg/kg/dose) was “in all treated animals”. The tolerability ([5]; 10, 100, or 400 mg/kg/dose once a week for 8 weeks, 30-minute IV infusion) was “well tolerated”, the “assessment of infusion reaction clinical signs” value ([5]; 100 and 400 mg/kg) was “adverse” and the NOAEL ([5]; dog, in vivo, dogs, infusion reaction, once weekly for 8 weeks, 30-minute IV infusion, read-out: no observable adverse effect level (NOAEL)) was 10 mg/kg. For the same molecule, the thromboemboli ([5]; dogs, 8-week toxicology study) was “no evidence of thromboemboli”, the “toxicity other than infusion reaction” value ([5]; dogs, up to highest dose of 400 mg/kg, once weekly for 8 weeks, 400 mg/kg) was “no other adverse effects” and the drug accumulation ([5]; over the 8-week study) was “no marked drug accumulation”. The “serum C3 levels (as measured by conversion to human SC5b-9)” value [6, 15] was “no decreases”, the “serum IFN-γ, TNF-α, IL-10, IL-4, IL-5, IL-6, IL-10, or IL-13 levels” value [6, 15] was “no changes” and the serum histamine levels ([6]; 12.5 mg/kg bolus IV, 10-minutes post-treatment) was “increased significantly”. The clinical observation ([6]; single bolus IV dose 12.5 mg/kg) was “consistent with a histamine reaction”, the “reverse bacterial mutation (Ames assay)” value [7] was “negative” and the spontaneous platelet aggregation ([8]; OPT101 at 30 μg/mL) was “no spontaneous platelet aggregation”. The “Platelet aggregation induced with adenosine diphosphate or collagen” value ([8]; OPT101 at 0.1, 0.3, 3 or 30 μg/mL) was “not affected”, the “assessment of clinical chemistry effects” value ([9]; 100 mg/kg) was “adverse” and the “alanine aminotransferase, aspartate aminotransferase, alkaline phosphatase, γ-glutamyltransferase, urea, creatinine, calcium, phosphorus, total bilirubin, creatine kinase” value [9, 16] was “notable increases”. The potassium [9, 16] was “decrease”, the “serum C5b-9 complement levels” value ([9]; 50 or 100 mg/kg) was “no increases” and the “decrease of fibrinogen (down to)” value ([9]; 50 or 100 mg/kg bolus IV) was 32%. For the same molecule, the “increase of prothrombin time” value ([9]; 50 or 100 mg/kg bolus IV) was 288%, the “leukocyte count, erythrocyte and platelet counts” value ([9]; 50 or 100 mg/kg bolus IV) was “increases” and the tolerability ([9]; 50 or 100 mg/kg bolus IV injection, single dose) was “not tolerated”. For the same molecule, the “histopathology evaluation of liver and kidney” value ([9]; bolus IV) was “no liver or kidney lesions”.

In the case of `NC(N)=NCCC[C@@H](N)C(=O)N[C@@H](CCCN=C(N)N)C(=O)N1CCC[C@H]1C(=O)N1C[C@H](O)C[C@H]1C(=O)NCC(=O)N[C@@H](Cc1cccs1)C(=O)N[C@@H](CO)C(=O)N1Cc2ccccc2C[C@@H]1C(=O)N1[C@H](C(=O)N[C@@H](CCCN=C(N)N)C(=O)O)C[C@@H]2CCCC[C@@H]21` [icatibant], the infusion reaction [10] is listed as “causes a reaction due to histamine release that is quickly reversed after end of infusion”.

For AKKGYY [KGYY6], the “production of TGF (intracellular, Th40 cells)” value [11] was “decrease production of TGF”, the insulin sensitivity ([12]; p<0.005) was “statistically significant improvement” and the glucose tolerance ([12]; p<0.05) was “statistically significant improvement”. For the same molecule, the “intracellular IL-10 in conventional CD4 T cells” value [13] was “increase in intracellular IL-10”, the “inflammatory cytokine IFNγ” value [14] was “varying degrees of reduction” and the “inflammatory cytokine IL-2” value [14] was “varying degrees of reduction”. For the same molecule, the “inflammatory cytokine IL-17A” value [14] was “varying degrees of reduction”.

For “YKNVKQMAYWLTGKS [scrambled version of OPT101, reference compound]”, the infusion reactions [1] was “also elicited”.
